Laboratory results as given in patent US20230151003A1, “COMPOUNDS AND METHODS OF USE” (Exelixis, Inc., priority 2020, published 2023).

Legend:
Met = Met (Homo sapiens, UniProt P08581); assay: Met autophosphorylation ELISA in PC-3 cells; type: cell-based; parameters: endogenous in cells; host or cells: PC-3 prostate cancer cells (ATCC #CRL-1435); settings: Table 3 Cellular Activities, HGF-stimulated, phospho-Met ELISA, read-out: c-Met IC50
Method in brief: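 Serum-starved (3 h) PC-3 cells pre-incubated 1 h with compound (8-point dose curve, 0.3% DMSO), then stimulated with 100 ng/mL recombinant human HGF for 10 min. Lysate phospho-Met (panTyr) measured by sandwich ELISA; IC50 from 4-parameter logistic fit, normalised to DMSO (100%) and reference-inhibitor (0%) controls.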

AXL = target: T1, AXL (Homo sapiens, UniProt P30530); assay: AXL autophosphorylation ELISA in A-172 cells; type: cell-based; settings: Table 3 Cellular Activities, Gas6-stimulated, phospho-AXL ELISA
T1 construct: endogenous in cells; host or cells: A-172 glioblastoma cells (ATCC #CRL-1620)
T1 sequence (P30530 26-894): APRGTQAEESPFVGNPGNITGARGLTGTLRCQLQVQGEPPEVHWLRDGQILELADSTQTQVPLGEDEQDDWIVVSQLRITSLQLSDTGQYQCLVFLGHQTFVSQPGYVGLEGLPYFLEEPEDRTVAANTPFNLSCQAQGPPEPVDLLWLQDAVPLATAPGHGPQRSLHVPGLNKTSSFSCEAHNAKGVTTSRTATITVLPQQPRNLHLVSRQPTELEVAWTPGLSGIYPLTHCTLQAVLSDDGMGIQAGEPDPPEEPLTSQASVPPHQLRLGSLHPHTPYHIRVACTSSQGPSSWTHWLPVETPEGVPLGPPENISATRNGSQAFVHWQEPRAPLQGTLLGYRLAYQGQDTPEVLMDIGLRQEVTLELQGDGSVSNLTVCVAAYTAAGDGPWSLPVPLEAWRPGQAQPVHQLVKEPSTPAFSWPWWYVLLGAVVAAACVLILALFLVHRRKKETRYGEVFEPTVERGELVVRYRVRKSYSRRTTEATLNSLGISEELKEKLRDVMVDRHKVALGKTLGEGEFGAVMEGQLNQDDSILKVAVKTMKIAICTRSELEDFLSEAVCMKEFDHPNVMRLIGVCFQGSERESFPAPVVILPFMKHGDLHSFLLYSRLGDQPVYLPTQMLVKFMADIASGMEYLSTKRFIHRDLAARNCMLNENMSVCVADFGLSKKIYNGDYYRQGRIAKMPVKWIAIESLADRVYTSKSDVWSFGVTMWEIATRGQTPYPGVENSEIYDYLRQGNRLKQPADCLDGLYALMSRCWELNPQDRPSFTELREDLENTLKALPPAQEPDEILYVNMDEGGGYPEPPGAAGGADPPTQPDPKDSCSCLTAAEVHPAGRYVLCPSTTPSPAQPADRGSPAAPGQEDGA
Method in brief: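 A-172 glioblastoma cells serum-starved 24 h, treated 1 h with compounds (8-point dose curve, 0.3% DMSO), then stimulated with 1 μg/mL Gas6 for 15 min. Lysate phospho-AXL quantified by ELISA against a standard; IC50 from 4-parameter logistic fit, normalised to DMSO and reference-inhibitor controls.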

Chain of Met (P08581 25-1390): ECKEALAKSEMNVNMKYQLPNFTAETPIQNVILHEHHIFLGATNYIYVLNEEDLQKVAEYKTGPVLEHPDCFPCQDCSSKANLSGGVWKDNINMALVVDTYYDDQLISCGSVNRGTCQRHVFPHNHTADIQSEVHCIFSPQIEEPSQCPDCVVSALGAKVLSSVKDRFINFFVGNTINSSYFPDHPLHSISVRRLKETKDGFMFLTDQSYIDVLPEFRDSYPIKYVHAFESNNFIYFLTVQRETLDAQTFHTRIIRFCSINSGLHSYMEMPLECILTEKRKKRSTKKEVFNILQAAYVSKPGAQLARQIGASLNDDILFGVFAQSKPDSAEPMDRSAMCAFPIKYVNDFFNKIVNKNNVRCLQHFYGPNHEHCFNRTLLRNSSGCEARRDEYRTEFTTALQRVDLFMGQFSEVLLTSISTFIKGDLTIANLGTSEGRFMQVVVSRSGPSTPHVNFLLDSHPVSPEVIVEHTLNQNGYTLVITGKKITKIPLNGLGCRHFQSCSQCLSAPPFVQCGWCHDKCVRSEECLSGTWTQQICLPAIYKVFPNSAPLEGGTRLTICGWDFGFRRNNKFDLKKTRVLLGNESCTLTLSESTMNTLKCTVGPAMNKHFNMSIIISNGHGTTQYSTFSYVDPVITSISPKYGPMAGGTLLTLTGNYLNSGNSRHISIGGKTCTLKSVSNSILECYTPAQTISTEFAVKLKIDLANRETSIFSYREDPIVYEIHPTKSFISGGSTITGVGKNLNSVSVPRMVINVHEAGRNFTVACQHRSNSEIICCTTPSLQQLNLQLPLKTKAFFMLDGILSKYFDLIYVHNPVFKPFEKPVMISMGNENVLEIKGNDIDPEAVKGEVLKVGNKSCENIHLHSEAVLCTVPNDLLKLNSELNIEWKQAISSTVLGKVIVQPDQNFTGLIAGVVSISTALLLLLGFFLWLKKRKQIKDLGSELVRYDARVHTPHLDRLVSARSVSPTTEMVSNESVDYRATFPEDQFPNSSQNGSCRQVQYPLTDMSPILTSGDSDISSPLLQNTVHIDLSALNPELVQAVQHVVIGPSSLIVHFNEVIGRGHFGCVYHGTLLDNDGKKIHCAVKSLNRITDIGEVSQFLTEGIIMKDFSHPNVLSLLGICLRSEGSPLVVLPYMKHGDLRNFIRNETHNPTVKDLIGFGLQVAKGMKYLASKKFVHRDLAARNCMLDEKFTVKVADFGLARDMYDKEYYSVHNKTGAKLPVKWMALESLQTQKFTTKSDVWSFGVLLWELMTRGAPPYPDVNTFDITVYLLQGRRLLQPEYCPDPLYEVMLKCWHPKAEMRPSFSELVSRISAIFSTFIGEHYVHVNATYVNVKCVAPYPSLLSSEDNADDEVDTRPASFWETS

COc1cc2nccc(Oc3ccc(NC(=O)c4cc(C#N)c(C)n(-c5ccc(F)cn5)c4=O)cc3F)c2nc1OC [Compound 56, 5-Cyano-N-[4-[(6,7-dimethoxy-1,5-naphthyridin-4-yl)oxy]-3-fluorophenyl]-1-(5-fluoropyridin-2-yl)-6-methyl-2-oxopyridine-3-carboxamide]
IC50 (Met): ≤ 100 nM | IC50 (AXL): ≤ 100 nM
